For 13 compounds, pest or weed control results are on record in US9107415B2, “2-(substituted-phenyl)-cyclopentane-1,3-dione compounds, and derivatives thereof” (Syngenta Limited, priority 2011, dated 2015).

What all share (assay type): in vivo
Assay [1] has as its system Lolium perenne (LOLPE). Put plainly: Biological Example 1 glasshouse screen, pre-emergence herbicidal activity. The note with it: 312 h, application rate 250 g/ha, evaluated after 13 days, read-out: LOLPE percentage phytotoxicity. As to the method: (§1) Seeds of a variety of test species were sown in standard soil in pots. After cultivation for one day (pre-emergence) or after 8 days cultivation (post-emergence) under controlled conditions in a glasshouse (at 24/16°C., day/night; 14 hours light; 65% humidity), the plants were sprayed with an aqueous spray solution derived from the formulation of the “technical”(i.e. unformulated) active ingredient in acetone/water (50:50) solution containing 0.5% Tween 20 (polyoxyethylene sorbitan monolaurate, CAS Registry Number 9005-64-5). The test plants were then grown in a glasshouse under controlled conditions in a glasshouse (at 24/16°C., day/night; 14 hours light; 65% humidity) and watered twice daily. After 13 days for pre- or post-emergence, the test was evaluated visually, and an assessed percentage phytotoxicity score given for each herbicidal application on each plant/weed species (with 100%=total damage to plant; 0%=no damage to plant).
(§2) Test plants: Lolium perenne (LOLPE), Alopecurus myosuroides (ALOMY), Echinochloa crus-galli (ECHCG), and Avena fatua (AVEFA). All four of these are grassy monocotyledonous weeds.

The subject of assay [2] is Avena fatua (AVEFA). The assay is described as above. The note with it: 312 h, application rate 250 g/ha, evaluated after 13 days, read-out: AVEFA percentage phytotoxicity. The protocol: as §1, §2
The subject of assay [3] is Alopecurus myosuroides (ALOMY). Put plainly: Biological Example 1 glasshouse screen, post-emergence herbicidal activity. The note with it: 312 h, application rate 250 g/ha, evaluated after 13 days, read-out: ALOMY percentage phytotoxicity. The protocol:
as §1
(§3) Test plants: Alopecurus myosuroides (ALOMY), Setaria faberi (SETFA), Echinochloa crus-galli (ECHCG), Solanum nigrum (SOLNI), Amaranthus retroflexus (AMARE) and Ipomoea hederacea (IPOHE). ALOMY, SETFA and ECHCG are grassy monocotyledonous weeds. SOLNI, AMARE and IPOHE are dicotyledonous (broadleaved) weeds.
as §2

For assay [4], the system named is Echinochloa crus-galli (ECHCG). Described as above. The note with it: 312 h, application rate 250 g/ha, evaluated after 13 days, read-out: ECHCG percentage phytotoxicity. The protocol: as §1, §3, §2
Assay [5] deals with Lolium perenne (LOLPE). The description is as above. The note with it: 312 h, application rate 250 g/ha, evaluated after 13 days, read-out: LOLPE percentage phytotoxicity. As to the method: as §1, §2
The subject of assay [6] is Avena fatua (AVEFA). The description is as above. The settings on record: 312 h, application rate 250 g/ha, evaluated after 13 days, read-out: AVEFA percentage phytotoxicity. The protocol: as §1, §2
The test system of assay [7] is Alopecurus myosuroides (ALOMY). Put plainly: Biological Example 1 glasshouse screen, pre-emergence herbicidal activity. The settings on record: 312 h, application rate 250 g/ha, evaluated after 13 days, read-out: ALOMY percentage phytotoxicity. As to the method:
as §1, §3, §2

In assay [8] the test system is Echinochloa crus-galli (ECHCG). Described as above. The settings on record: 312 h, application rate 250 g/ha, evaluated after 13 days, read-out: ECHCG percentage phytotoxicity. The protocol:
as §1, §3, §2

The subject of assay [9] is Lolium perenne, perennial ryegrass (LOLPE). Put plainly: Biological Example 3 glasshouse screen, post-emergence herbicidal activity. The note with it: 360 h, application rate 30 g/ha, 15 DAA, no safener, read-out: LOLPE percentage phytotoxicity. The protocol:
(§4) Test Method: Seeds of a variety of test species are sown in standard soil in pots. After cultivation for one day (pre-emergence) or after 12 days cultivation (post-emergence) under controlled conditions in a glasshouse (warm climate species at 24/18°C., cool climate species at 20/16°C., both at day/night; 16 hours light; 65% humidity), the plants are sprayed with an aqueous spray solution derived from the formulation of the “technical”(i.e. unformulated) active ingredient dissolved in acetone plus IF50, at a 1:20 ratio of “technical”active ingredient to IF50. The IF50 contains about 10.56 weight % Emulsogen EL™(castor oil ethoxylate, CAS Registry number 61791-12-6), about 42.22 weight % N-methylpyrrolidone, and about 42.22 weight % DPG-Monoethyl ether (dipropylene glycol mono-ethyl ether). The adjuvant X-77 (a mixture of alkyl aryl polyoxyethylene glycols and free fatty acids in isopropanol, CAS Registry number 11097-66-8) is added to the aqueous spray solution to form a 0.2% v/v solution, before spraying onto the plants.
(§5) The test plants are then grown in a glasshouse under controlled conditions in a glasshouse (at 24/18°C. or 20/16°C., day/night; 16 hours light; 65% humidity) and watered twice daily. After 15 days after application of the herbicide (15 DAA) (for post-emergence), and after 20 DAA (for pre-emergence), the test is evaluated visually, and an assessed percentage phytotoxicity score is given for each herbicidal application on each plant/weed species (with 100%=total damage to plant; 0%=no damage to plant). […]

Assay [10] has as its system Avena fatua, wild oats (AVEFA). Described as above. The settings on record: 360 h, application rate 30 g/ha, 15 DAA, no safener, read-out: AVEFA percentage phytotoxicity. The protocol: as §4, §5
Assay [11] relates to Echinochloa crus galli, barnyardgrass (ECHCG). The description is as above. The settings on record: 360 h, application rate 30 g/ha, 15 DAA, no safener, read-out: ECHCG percentage phytotoxicity. The protocol: as §4, §5
Assay [12] deals with Alopecurus myosuroides, blackgrass (ALOMY). Described as above. The settings on record: 360 h, application rate 30 g/ha, 15 DAA, no safener, read-out: ALOMY percentage phytotoxicity. As to the method:
as §4, §5

The test system of assay [13] is Triticum aestivum, wheat (TRZAW). Put plainly: Biological Example 3 glasshouse screen, post-emergence, phytotoxicity on wheat. The settings on record: 360 h, application rate 30 g/ha, 15 DAA, no safener, read-out: TRZAW percentage phytotoxicity. The protocol: as §4
The test plants are then grown in a glasshouse under controlled conditions in a glasshouse (at 24/18°C. or 20/16°C., day/night; 16 hours light; 65% humidity) and watered twice daily. After 15 days after application of the herbicide (15 DAA) (for post-emergence), and after 20 DAA (for pre-emergence), the test is evaluated visually, and an assessed percentage phytotoxicity score is given for each herbicidal application on each plant/weed species (with 100%=total damage to plant; 0%=no damage to plant).
These give an approximate indication of the level of selectivity on wheat for these tested compounds, when a herbicide safener such as cloquintocet-mexyl is not used: […]

Turning to `C#CCC1CC(=O)C(c2c(C)cc(C#CC)cc2C)C1=O` (centres unmarked) [Compound A-20], the pest or weed control at 250 g/ha was found to be 100% in the assay on Lolium perenne (LOLPE) [1]; 90% in the assay with Avena fatua (AVEFA) [2]; 100% in assay [3]; 100% in assay [4]; 100% in the assay on Lolium perenne (LOLPE) [5]; 90% with Avena fatua (AVEFA) [6]. In addition, the pest or weed control at 250 g/ha in [7] and in assay [8] was 100% in each case.

For the compound `Cc1cc(-c2ccc(F)cc2)cc(C)c1C1C(=O)CC(Cc2ccc(C#N)cn2)C1=O` (centres unmarked) [reference compound], the pest or weed control at 30 g/ha in assay [9] was found to be 10%; in [10], 30%; in assay [11], 100%; in assay [12], 70%; in assay [13], 50%.

With `Cc1cc(-c2ccc(F)c(Cl)c2)cc(C)c1C1C(=O)CC(Cc2ccccn2)C1=O` (centres unmarked) [reference compound], the pest or weed control at 30 g/ha in assay [9] came to 70%; in [10], 90%; in assay [11] it was 90%; in [12], 100%; in [13] it was 70%.

`CC#Cc1cc(C)c(C2=C(O)CC(Cc3ccc(C(C)=O)cn3)C2=O)c(C)c1` (centres unmarked) [Compound A-13]: the pest or weed control at 250 g/ha in the assay on Lolium perenne (LOLPE) [1] was 80%; in the assay with Avena fatua (AVEFA) [2] it was 80%; in assay [3], 70%; in assay [4], 100%; with Lolium perenne (LOLPE) [5], 80%; with Avena fatua (AVEFA) [6], 80%. For the same compound, the values for the pest or weed control at 250 g/ha in [7] and in assay [8] were 80% and 100%, respectively.

As to `C#CCC1CC(=O)C(c2c(C)cc(C#CCl)cc2C)C1=O` (centres unmarked) [Compound A-25], the pest or weed control at 250 g/ha came to 100% in the assay on Lolium perenne (LOLPE) [1]; 70% in the assay with Avena fatua (AVEFA) [2]; 90% in assay [3]; 100% in assay [4]; 100% with Lolium perenne (LOLPE) [5]; 100% with Avena fatua (AVEFA) [6]. The pest or weed control at 250 g/ha in assay [7] was found to be 90%; in assay [8], 100%.

With `CC#Cc1cc(C)c(C2C(=O)CC(CC#CCl)C2=O)c(C)c1` (centres unmarked) [Compound A-22], the pest or weed control at 250 g/ha in the assay with Lolium perenne (LOLPE) [1] amounted to 90%; in the assay on Avena fatua (AVEFA) [2], 80%; in assay [3], 60%; in assay [4], 100%; with Lolium perenne (LOLPE) [5], 80%; in the assay with Avena fatua (AVEFA) [6], 0%. For the same compound, the pest or weed control at 250 g/ha in [7] stood at 90%; in [8], 100%.

Regarding `CC#Cc1cc(C)c(C2C(=O)CC(Cc3ccc(C#N)cc3)C2=O)c(C)c1` (centres unmarked) [Compound A-28], the pest or weed control at 250 g/ha in the assay with Lolium perenne (LOLPE) [1] stood at 90%; in the assay on Avena fatua (AVEFA) [2], 70%; in assay [3], 90%; in assay [4], 100%; in the assay on Lolium perenne (LOLPE) [5], 90%; in the assay on Avena fatua (AVEFA) [6], 80%. Moreover, the results for the pest or weed control at 250 g/ha in [7] and in assay [8] were 70% and 100%, respectively.

For `CC#Cc1cc(C)c(C2C(=O)CC(Cc3ccc(C#N)c(NC)n3)C2=O)c(C)c1` (centres unmarked) [Compound A-23, 6-[[3-(2,6-dimethyl-4-prop-1-ynyl-phenyl)-2,4-dioxo-cyclopentyl]methyl]-2-(methylamino)pyridine-3-carbonitrile], the pest or weed control at 250 g/ha turned out to be 80% in the assay with Lolium perenne (LOLPE) [1]; 80% in the assay on Avena fatua (AVEFA) [2]; 100% in assay [3]; 100% in assay [4]; 90% in the assay on Lolium perenne (LOLPE) [5]; 90% in the assay on Avena fatua (AVEFA) [6]. In addition, the pest or weed control at 250 g/ha in [7] was found to be 80%; in assay [8] it was 100%.

Consider `CC#Cc1cc(C)c(C2C(=O)CC(Cc3ccccc3C#N)C2=O)c(C)c1` (centres unmarked) [Compound A-29], for which the pest or weed control at 250 g/ha amounted to 50% in the assay with Lolium perenne (LOLPE) [1]; 100% in the assay with Avena fatua (AVEFA) [2]; 100% in [3]; 100% in assay [4]; 100% with Lolium perenne (LOLPE) [5]; 80% in the assay with Avena fatua (AVEFA) [6]. In addition, the pest or weed control at 250 g/ha in assay [7] was 50%; in assay [8] it was 80%.

On to `CC#Cc1cc(C)c(C2C(=O)CC(Cc3ccc(C#N)cn3)C2=O)c(CC)c1` (centres unmarked) [Compound A-27], for which the pest or weed control at 250 g/ha in the assay on Lolium perenne (LOLPE) [1] came to 100%; with Avena fatua (AVEFA) [2], 90%; in assay [3], 70%; in assay [4], 100%; with Lolium perenne (LOLPE) [5], 90%; with Avena fatua (AVEFA) [6], 100%. Moreover, the pest or weed control at 250 g/ha is 90% in assay [7] and 100% in [8].

Turning to `CC#CCC1CC(=O)C(c2c(C)cc(C#CC)cc2C)C1=O` (centres unmarked) [Compound A-21], the pest or weed control at 250 g/ha in the assay on Lolium perenne (LOLPE) [1] stood at 100%; in the assay with Avena fatua (AVEFA) [2] it was 60%; in assay [3] it was 100%; in assay [4], 100%; in the assay on Lolium perenne (LOLPE) [5] it was 100%; in the assay on Avena fatua (AVEFA) [6] it was 80%. The pest or weed control at 250 g/ha in assay [7] and in assay [8] was 100% throughout.

`CC#Cc1cc(C)c(C2C(=O)CC(Cc3ccn[nH]3)C2=O)c(C)c1` (centres unmarked) [Compound A-24]: the pest or weed control at 250 g/ha in the assay with Lolium perenne (LOLPE) [1] was found to be 100%; in the assay on Avena fatua (AVEFA) [2], 80%; in [3], 100%; in assay [4], 100%; in the assay on Lolium perenne (LOLPE) [5], 100%; in the assay on Avena fatua (AVEFA) [6], 100%. Moreover, the pest or weed control at 250 g/ha in [7] and in assay [8] was 100% in each case.

Consider `CC#Cc1cc(C)c(C2=C(O)CC(Cc3cccc(C#N)n3)C2=O)c(C)c1` (centres unmarked) [Compound A-12], for which the pest or weed control at 250 g/ha with Lolium perenne (LOLPE) [1] is 90%; in the assay on Avena fatua (AVEFA) [2], 80%; in [3] it was 90%; in assay [4] it was 100%; with Lolium perenne (LOLPE) [5], 90%; in the assay on Avena fatua (AVEFA) [6], 100%. The results for the pest or weed control at 250 g/ha in assay [7] and in assay [8] were 90% and 100%, respectively.
